In patent publication US9738634B2, “Heterocyclic amide compound and herbicide” (SYNGENTA PARTICIPATIONS AG, priority 2013, dated 2017):

Columns and labels:
Type in all cases: in vivo
Indian mallow = assay: Test Example 3: weedkilling efficacy through soil treatment; K: Indian mallow; settings: soil treatment, treatment dosage 320 g/ha
Outline: (§1)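 Crop and weed responses were judged three weeks after a uniform surface spray of the water-diluted emulsion at the given g/ha rate. Seeds sat beneath about 1.5 cm of sterilized diluvial soil, and boxes stood in a greenhouse at 25 to 30° C.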

transplanted rice = assay: Test Example 1: preemergent weed treatment in the submerged state, effect on crop; a: transplanted rice; settings: treatment dosage 320 g/ha
Outline: (§2)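 Pre-emergence paddy test: weed seeds sown in submerged alluvial soil (4 cm water), 2.5-leaf rice transplanted, water-diluted emulsion applied to water surface at sowing at stated g/ha. Scored at 3 weeks, greenhouse 25–30 °C.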

wild oat = assay: Test Example 3: weedkilling efficacy through soil treatment; G: wild oat; settings: soil treatment, treatment dosage 320 g/ha
Outline: as §1

common wind-grass = assay: Test Example 3: weedkilling efficacy through soil treatment; J: common wind-grass; settings: soil treatment, treatment dosage 320 g/ha
Outline: as §1

rapeseed = assay: Test Example 3: soil treatment, effect on crop; g: rapeseed; settings: soil treatment, treatment dosage 320 g/ha
Outline: as §1

beet = assay: Test Example 3: soil treatment, effect on crop; f: beet; settings: soil treatment, treatment dosage 320 g/ha
Outline: as §1

green foxtail = assay: Test Example 3: weedkilling efficacy through soil treatment; E: green foxtail; settings: soil treatment, treatment dosage 320 g/ha
Outline: as §1

Italian ryegrass = assay: Test Example 3: weedkilling efficacy through soil treatment; I: Italian ryegrass; settings: soil treatment, treatment dosage 320 g/ha
Outline: as §1

crabgrass = assay: Test Example 3: weedkilling efficacy through soil treatment; D: crabgrass; settings: soil treatment, treatment dosage 320 g/ha
Outline: as §1

oval-leafed pondweed [1] = assay: Test Example 1: weedkilling efficacy, preemergent weed treatment in the submerged state; C: oval-leafed pondweed; settings: treatment dosage 320 g/ha
Outline: as §2

wheat = assay: Test Example 3: soil treatment, effect on crop; e: wheat; settings: soil treatment, treatment dosage 320 g/ha
Outline: as §1

barnyard grass [2] = assay: Test Example 1: weedkilling efficacy, preemergent weed treatment in the submerged state; A: barnyard grass; settings: treatment dosage 320 g/ha
Outline: as §2

fig-leafed goosefoot = assay: Test Example 3: weedkilling efficacy through soil treatment; M: fig-leafed goosefoot; settings: soil treatment, treatment dosage 320 g/ha
Outline: as §1

corn = assay: Test Example 3: soil treatment, effect on crop; c: corn; settings: soil treatment, treatment dosage 320 g/ha
Outline: as §1

barnyard grass [3] = assay: Test Example 3: weedkilling efficacy through soil treatment; F: barnyard grass; settings: soil treatment, treatment dosage 320 g/ha
Outline: as §1

chickweed = assay: Test Example 3: weedkilling efficacy through soil treatment; N: chickweed; settings: soil treatment, treatment dosage 320 g/ha
Outline: as §1

soybean = assay: Test Example 3: soil treatment, effect on crop; d: soybean; settings: soil treatment, treatment dosage 320 g/ha
Outline: as §1

bulrush [4] = assay: Test Example 2: weedkilling efficacy, growth period weed treatment in the submerged state; B: bulrush; settings: treatment dosage 320 g/ha
Outline: (§3)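 Seedlings at 1-2 leaves in 4 cm-deep submerged alluvial soil received emulsion formulations on the water surface, dosed per hectare; effects were judged 3 weeks on.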

directly sown rice = assay: Test Example 3: soil treatment, effect on crop; b: directly sown rice; settings: soil treatment, treatment dosage 320 g/ha
Outline: as §1

bulrush [5] = assay: Test Example 1: weedkilling efficacy, preemergent weed treatment in the submerged state; B: bulrush; settings: treatment dosage 320 g/ha
Outline: as §2

redroot pigweed = assay: Test Example 3: weedkilling efficacy through soil treatment; L: redroot pigweed; settings: soil treatment, treatment dosage 320 g/ha
Outline: as §1

oval-leafed pondweed [6] = assay: Test Example 2: weedkilling efficacy, growth period weed treatment in the submerged state; C: oval-leafed pondweed; settings: treatment dosage 320 g/ha
Outline: as §3

black-grass = assay: Test Example 3: weedkilling efficacy through soil treatment; H: black-grass; settings: soil treatment, treatment dosage 320 g/ha
Outline: as §1

barnyard grass [7] = assay: Test Example 2: weedkilling efficacy, growth period weed treatment in the submerged state; A: barnyard grass; settings: treatment dosage 320 g/ha
Outline: as §3

birds-eye speedwell = assay: Test Example 3: weedkilling efficacy through soil treatment; p: birds-eye speedwell; settings: soil treatment, treatment dosage 320 g/ha
Outline: as §1

catchweed = assay: Test Example 3: weedkilling efficacy through soil treatment; O: catchweed; settings: soil treatment, treatment dosage 320 g/ha
Outline: as §1

Row | SMILES | K: Indian mallow, weedkilling efficacy grade (Indian mallow) | a: transplanted rice, effect on crop grade (transplanted rice) | G: wild oat, weedkilling efficacy grade (wild oat) | J: common wind-grass, weedkilling efficacy grade (common wind-grass) | g: rapeseed, effect on crop grade (rapeseed) | f: beet, effect on crop grade (beet) | E: green foxtail, weedkilling efficacy grade (green foxtail) | I: Italian ryegrass, weedkilling efficacy grade (Italian ryegrass) | D: crabgrass, weedkilling efficacy grade (crabgrass) | C: oval-leafed pondweed, weed kill grade (oval-leafed pondweed [1]) | e: wheat, effect on crop grade (wheat) | A: barnyard grass, weed kill grade (barnyard grass [2]) | M: fig-leafed goosefoot, weedkilling efficacy grade (fig-leafed goosefoot) | c: corn, effect on crop grade (corn) | F: barnyard grass, weedkilling efficacy grade (barnyard grass [3]) | N: chickweed, weedkilling efficacy grade (chickweed) | d: soybean, effect on crop grade (soybean) | B (bulrush) weedkilling efficacy grade (bulrush [4]) | b: directly sown rice, effect on crop grade (directly sown rice) | B: bulrush, weed kill grade (bulrush [5]) | other results
1 | COc1cc(Cl)cc(NC(=O)C(C)(C)N2COCN(c3ccccc3)C2=O)n1 [A-2-32] | 0 (weed kill ratio 5% or less (practically no effect)) | 4 (weed kill ratio 70% or more, less than 90%) | 5 (weed kill ratio 90% or more, (practically complete withering)) | 5 (weed kill ratio 90% or more, (practically complete withering)) | 4 (weed kill ratio 70% or more, less than 90%) | 4 (weed kill ratio 70% or more, less than 90%) | 5 (weed kill ratio 90% or more, (practically complete withering)) | 5 (weed kill ratio 90% or more, (practically complete withering)) | 5 (weed kill ratio 90% or more, (practically complete withering)) | 5 (weed kill ratio 90% or more, (practically complete withering)) | 0 (weed kill ratio 5% or less (practically no effect)) | 5 (weed kill ratio 90% or more, (practically complete withering)) | 5 (weed kill ratio 90% or more, (practically complete withering)) | 1 (weed kill ratio 5% or more, less than 20%) | 5 (weed kill ratio 90% or more, (practically complete withering)) | 4 (weed kill ratio 70% or more, less than 90%) | 0 (weed kill ratio 5% or less (practically no effect)) | 5 (weed kill ratio 90% or more, (practically complete withering)) | 2 (weed kill ratio 20% or more, less than 40%) | 5 (weed kill ratio 90% or more, (practically complete withering)) | L: redroot pigweed, weedkilling efficacy grade (redroot pigweed): 3 (weed kill ratio 40% or more, less than 70%); C (oval-leafed pondweed) weedkilling efficacy grade (oval-leafed pondweed [6]): 5 (weed kill ratio 90% or more, (practically complete withering)); H: black-grass, weedkilling efficacy grade (black-grass): 5 (weed kill ratio 90% or more, (practically complete withering)); A (barnyard grass) weedkilling efficacy grade (barnyard grass [7]): 5 (weed kill ratio 90% or more, (practically complete withering)); P: birds-eye speedwell, weedkilling efficacy grade (birds-eye speedwell): 5 (weed kill ratio 90% or more, (practically complete withering)); O: catchweed, weedkilling efficacy grade (catchweed): 5 (weed kill ratio 90% or more, (practically complete withering))
2 | CC(C)(C(=O)Nc1cc(C2CC2)cc(Cl)n1)N1COCN(c2ccccc2)C1=O [A-2-30] | 0 (weed kill ratio 5% or less (practically no effect)) | 1 (weed kill ratio 5% or more, less than 20%) | 4 (weed kill ratio 70% or more, less than 90%) | 5 (weed kill ratio 90% or more, (practically complete withering)) | 4 (weed kill ratio 70% or more, less than 90%) | 3 (weed kill ratio 40% or more, less than 70%) | 5 (weed kill ratio 90% or more, (practically complete withering)) | 5 (weed kill ratio 90% or more, (practically complete withering)) | 5 (weed kill ratio 90% or more, (practically complete withering)) | 5 (weed kill ratio 90% or more, (practically complete withering)) | 1 (weed kill ratio 5% or more, less than 20%) | 5 (weed kill ratio 90% or more, (practically complete withering)) | 3 (weed kill ratio 40% or more, less than 70%) | 0 (weed kill ratio 5% or less (practically no effect)) | 5 (weed kill ratio 90% or more, (practically complete withering)) | 3 (weed kill ratio 40% or more, less than 70%) | 0 (weed kill ratio 5% or less (practically no effect)) | 5 (weed kill ratio 90% or more, (practically complete withering)) | 3 (weed kill ratio 40% or more, less than 70%) | 5 (weed kill ratio 90% or more, (practically complete withering)) | L: redroot pigweed, weedkilling efficacy grade (redroot pigweed): 0 (weed kill ratio 5% or less (practically no effect)); C (oval-leafed pondweed) weedkilling efficacy grade (oval-leafed pondweed [6]): 5 (weed kill ratio 90% or more, (practically complete withering)); H: black-grass, weedkilling efficacy grade (black-grass): 5 (weed kill ratio 90% or more, (practically complete withering)); A (barnyard grass) weedkilling efficacy grade (barnyard grass [7]): 5 (weed kill ratio 90% or more, (practically complete withering)); P: birds-eye speedwell, weedkilling efficacy grade (birds-eye speedwell): 4 (weed kill ratio 70% or more, less than 90%); O: catchweed, weedkilling efficacy grade (catchweed): 0 (weed kill ratio 5% or less (practically no effect))
3 | CC(C)(C(=O)Nc1cc(C(F)F)ccn1)N1COCN(c2ccccc2)C1=O [A-2-40] | 4 (weed kill ratio 70% or more, less than 90%) | 1 (weed kill ratio 5% or more, less than 20%) | 5 (weed kill ratio 90% or more, (practically complete withering)) | 5 (weed kill ratio 90% or more, (practically complete withering)) | 4 (weed kill ratio 70% or more, less than 90%) | 4 (weed kill ratio 70% or more, less than 90%) | 5 (weed kill ratio 90% or more, (practically complete withering)) | 5 (weed kill ratio 90% or more, (practically complete withering)) | 5 (weed kill ratio 90% or more, (practically complete withering)) | 5 (weed kill ratio 90% or more, (practically complete withering)) | 1 (weed kill ratio 5% or more, less than 20%) | 5 (weed kill ratio 90% or more, (practically complete withering)) | 4 (weed kill ratio 70% or more, less than 90%) | 2 (weed kill ratio 20% or more, less than 40%) | 5 (weed kill ratio 90% or more, (practically complete withering)) | 4 (weed kill ratio 70% or more, less than 90%) | 3 (weed kill ratio 40% or more, less than 70%) | 5 (weed kill ratio 90% or more, (practically complete withering)) | 5 (weed kill ratio 90% or more, (practically complete withering)) | 5 (weed kill ratio 90% or more, (practically complete withering)) | L: redroot pigweed, weedkilling efficacy grade (redroot pigweed): 4 (weed kill ratio 70% or more, less than 90%); C (oval-leafed pondweed) weedkilling efficacy grade (oval-leafed pondweed [6]): 5 (weed kill ratio 90% or more, (practically complete withering)); H: black-grass, weedkilling efficacy grade (black-grass): 5 (weed kill ratio 90% or more, (practically complete withering)); A (barnyard grass) weedkilling efficacy grade (barnyard grass [7]): 5 (weed kill ratio 90% or more, (practically complete withering)); P: birds-eye speedwell, weedkilling efficacy grade (birds-eye speedwell): 5 (weed kill ratio 90% or more, (practically complete withering)); O: catchweed, weedkilling efficacy grade (catchweed): 5 (weed kill ratio 90% or more, (practically complete withering))
